Assay results from ChEMBL document CHEMBL5634099, “Pyrrole-thiazolidinone hybrids as a new structural class of broad-spectrum anti-infectives” (Eur J Med Chem, 2023).
Values after ≈ are worked out from the molar mass of the structure shown.

How the values were obtained:
[1] = test system: Mycobacteroides abscessus; experiment: Antimycobacterial activity against Mycobacterium abscessus ATCC 19977 assessed as bacterial growth inhibition incubated for 7 days by resazurin dye based assay; assay type: functional; conditions: ATCC 19977, 168 h, time 7 day
Pseudomonas aeruginosa = experiment: Antibacterial activity against Pseudomonas aeruginosa ATCC 27853 assessed as bacterial growth inhibition incubated for 16 to 18 hrs by CLSI based susceptibility testing method; assay type: functional; conditions: time 16-18 hrs
Staphylococcus aureus = experiment: Antibacterial activity against Staphylococcus aureus ATCC 29213 assessed as bacterial growth inhibition incubated for 16 to 18 hrs by CLSI based susceptibility testing method; assay type: functional; conditions: time 16-18 hrs
Klebsiella pneumoniae = experiment: Antibacterial activity against Klebsiella pneumoniae BAA 1705 assessed as bacterial growth inhibition incubated for 16 to 18 hrs by CLSI based susceptibility testing method; assay type: functional; conditions: time 16-18 hrs
[2] = test system: Mycobacterium tuberculosis; experiment: Antimycobacterial activity against Mycobacterium tuberculosis H37Rv ATCC 27294 assessed as bacterial growth inhibition incubated for 7 days by resazurin dye based assay; assay type: functional; conditions: H37Rv ATCC 27294, 168 h, time 7 day
[3] = test system: Mycolicibacterium fortuitum; experiment: Antimycobacterial activity against Mycobacterium fortuitum ATCC 6841 assessed as bacterial growth inhibition incubated for 7 days by resazurin dye based assay; assay type: functional; conditions: ATCC 6841, 168 h, time 7 day
Acinetobacter baumannii = experiment: Antibacterial activity against Acinetobacter baumannii BAA 1605 assessed as bacterial growth inhibition incubated for 16 to 18 hrs by CLSI based susceptibility testing method; assay type: functional; conditions: time 16-18 hrs
Mycobacteroides chelonae = experiment: Antimycobacterial activity against Mycobacteroides chelonae ATCC 35752 assessed as bacterial growth inhibition incubated for 7 days by resazurin dye based assay; assay type: functional; conditions: ATCC 35752, 168 h, time 7 day
Escherichia coli = experiment: Antibacterial activity against Escherichia coli ATCC 25922 assessed as bacterial growth inhibition incubated for 16 to 18 hrs by CLSI based susceptibility testing method; assay type: functional; conditions: time 16-18 hrs
[4] = Cytotoxicity against African green monkey Vero cells assessed as reduction in cell viability incubated for 72 hrs by MTT assay; assay type: toxicity, cell-based; conditions: chlorocebus sabaeus
[5] = Selectivity index, ratio of CC50 for African green monkey Vero cells to IC50 for Mycobacterium tuberculosis H37Rv ATCC 27294; assay type: toxicity; conditions: read-out: Selectivity Index

SMILES | MIC [1] | MIC (Pseudomonas aeruginosa) | MIC (Staphylococcus aureus) | MIC (Klebsiella pneumoniae) | MIC [2] | MIC [3] | MIC (Acinetobacter baumannii) | MIC (Mycobacteroides chelonae) | MIC (Escherichia coli) | CC50 at 72 h [4] | selectivity ratio [5]
Cc1nc(/N=C2\NC(=O)/C(=C/c3cc(C)n(-c4cccc(Cl)c4)c3C)S2)sc1C | > 64 µg/mL | > 64 µg/mL | > 64 µg/mL | > 64 µg/mL | 4 µg/mL (≈ 9.03 µM) | > 64 µg/mL | > 64 µg/mL | > 64 µg/mL | > 64 µg/mL | – | –
Cc1nc(/N=C2\NC(=O)/C(=C/c3cc(C)n(-c4ccc([N+](=O)[O-])cc4)c3C)S2)sc1C | > 64 µg/mL | > 64 µg/mL | > 64 µg/mL | > 64 µg/mL | > 64 µg/mL | > 64 µg/mL | > 64 µg/mL | > 64 µg/mL | > 64 µg/mL | – | –
Cc1nc(/N=C2\NC(=O)/C(=C/c3cc(C)n(-c4ccc(Cl)cc4)c3C)S2)sc1C | > 64 µg/mL | > 64 µg/mL | > 64 µg/mL | > 64 µg/mL | > 64 µg/mL | > 64 µg/mL | > 64 µg/mL | > 64 µg/mL | > 64 µg/mL | – | –
Cc1ccc(-n2c(C)cc(/C=C3\S/C(=N/c4nc(C)c(C)s4)NC3=O)c2C)cc1 | > 64 µg/mL | > 64 µg/mL | > 64 µg/mL | > 64 µg/mL | > 64 µg/mL | > 64 µg/mL | > 64 µg/mL | > 64 µg/mL | > 64 µg/mL | – | –
Cc1nc(/N=C2\NC(=O)/C(=C/c3cc(C)n(-c4ccccc4Br)c3C)S2)sc1C | > 64 µg/mL | > 64 µg/mL | > 64 µg/mL | > 64 µg/mL | 4 µg/mL (≈ 8.21 µM) | > 64 µg/mL | > 64 µg/mL | > 64 µg/mL | > 64 µg/mL | – | –
Cc1ccc(-n2c(C)cc(/C=C3\S/C(=N/c4nccs4)NC3=O)c2C)cc1C | > 64 µg/mL | > 64 µg/mL | 16 µg/mL (≈ 39.2 µM) | > 64 µg/mL | 0.5 µg/mL (≈ 1.22 µM) | > 64 µg/mL | > 64 µg/mL | > 64 µg/mL | > 64 µg/mL | 40 µg/mL (≈ 97.9 µM) | 80
Cc1nc(/N=C2\NC(=O)/C(=C/c3cc(C)n(-c4ccc([N+](=O)[O-])c(C(F)(F)F)c4)c3C)S2)sc1C | > 64 µg/mL | > 64 µg/mL | 16 µg/mL (≈ 30.7 µM) | > 64 µg/mL | > 64 µg/mL | > 64 µg/mL | > 64 µg/mL | > 64 µg/mL | > 64 µg/mL | – | –
COc1ccc(-n2c(C)cc(/C=C3\S/C(=N/c4nc(C)c(C)s4)NC3=O)c2C)cc1OC | > 64 µg/mL | > 64 µg/mL | 64 µg/mL (≈ 137 µM) | > 64 µg/mL | > 64 µg/mL | > 64 µg/mL | > 64 µg/mL | > 64 µg/mL | > 64 µg/mL | – | –
Cc1nc(/N=C2\NC(=O)/C(=C/c3cc(C)n(-c4ccc(N5CCOCC5)cc4)c3C)S2)sc1C | > 64 µg/mL | > 64 µg/mL | 64 µg/mL (≈ 130 µM) | > 64 µg/mL | > 64 µg/mL | > 64 µg/mL | > 64 µg/mL | > 64 µg/mL | > 64 µg/mL | – | –
